From patent US12077503B2, “Substituted cyclic amides and their use as herbicides” (FMC CORPORATION, priority 2015, dated 2024)
Where two headings read alike, the source gives them in different places.

Assays:
Type in all cases: in vivo
Kochia (Kochia scoparia) [1] = experiment: Test A preemergence; settings: Bassia scoparia, pre-emergence, 240 h, preemergence; for pest or weed control at 125 g/ha: 125 g ai/ha; for pest or weed control at 500 g/ha: 500 g ai/ha
Summary of the method: (§1)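 In a loam soil and sand blend, planted seeds got a preemergence directed soil spray, and young plants at the one- to two-leaf stage, 2–10 cm high, got a postemergence application; ~10 d greenhouse hold; injury rated visually, 0 = none, 100 = complete control.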

corn (Zea mays) = experiment: Test A postemergence; settings: Zea mays, post-emergence, 240 h, postemergence
Summary of the method: as §1

[2] = system: blackgrass (Alopecurus myosuroides); experiment: Test A postemergence; settings: Alopecurus myosuroides, post-emergence, 240 h, postemergence; for pest or weed control at 125 g/ha: 125 g ai/ha
Summary of the method: as §1

[3] = system: pigweed (Amaranthus retroflexus); experiment: Test A postemergence; settings: Amaranthus retroflexus, post-emergence, 240 h, postemergence; for pest or weed control at 125 g/ha: 125 g ai/ha
Summary of the method: as §1

[4] = system: ragweed (common ragweed, Ambrosia elatior); experiment: Test A postemergence; settings: Ambrosia artemisiifolia, post-emergence, 240 h, postemergence; for pest or weed control at 125 g/ha: 125 g ai/ha
Summary of the method: as §1

Kochia (Kochia scoparia) [5] = experiment: Test A postemergence; settings: Bassia scoparia, post-emergence, 240 h, postemergence; for pest or weed control at 125 g/ha: 125 g ai/ha
Summary of the method: as §1

[6] = system: ryegrass, Italian (Italian ryegrass, Lolium multiflorum); experiment: Test A postemergence; settings: Lolium multiflorum, post-emergence, 240 h, postemergence; for pest or weed control at 125 g/ha: 125 g ai/ha
Summary of the method: as §1

[7] = system: Galium (catchweed bedstraw, Galium aparine); experiment: Test A postemergence; settings: Galium, post-emergence, 240 h, postemergence; for pest or weed control at 125 g/ha: 125 g ai/ha
Summary of the method: as §1

[8] = system: wheat (Triticum aestivum); experiment: Test A postemergence; settings: Triticum aestivum, post-emergence, 240 h, postemergence; for plant injury at 125 g/ha: 125 g ai/ha
Summary of the method: as §1

[9] = system: giant foxtail (Setaria faberii); experiment: Test A postemergence; settings: Setaria faberi, post-emergence, 240 h, postemergence; for pest or weed control at 125 g/ha: 125 g ai/ha
Summary of the method: as §1

[10] = system: barnyardgrass (Echinochloa crus-galli); experiment: Test A postemergence; settings: Echinochloa crus-galli, post-emergence, 240 h, postemergence; for pest or weed control at 125 g/ha: 125 g ai/ha
Summary of the method: as §1

[11] = system: sedge, umbrella (small-flower umbrella sedge, Cyperus difformis); experiment: Test B flooded paddy test; settings: Cyperus difformis, 250 g ai/ha, Flood, read-out: Sedge, Umbrella plant response rating
Summary of the method: (§2)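 Greenhouse paddy pots with 2-leaf stage plants received compound by direct addition to floodwater 3 cm deep, kept at that level. Scored visually at 13–15 d versus controls (0 no effect; 100 complete control).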

[12] = system: ducksalad (Heteranthera limosa); experiment: Test B flooded paddy test; settings: Heteranthera limosa, 250 g ai/ha, Flood, read-out: Ducksalad plant response rating
Summary of the method: as §2

rice (Oryra sativa) = experiment: Test B flooded paddy test; settings: Oryza sativa, 250 g ai/ha, Flood, read-out: Rice plant response rating
Summary of the method: as §2

[13] = system: barnyardgrass (Echinochloa crus-galli); experiment: Test B flooded paddy test; settings: Echinochloa crus-galli, 250 g ai/ha, Flood, read-out: Barnyardgrass plant response rating
Summary of the method: as §2

[14] = 0 to 100 scale where 0 is no effect and 100 is complete control
[15] = scale of 0 to 100 where 0 is no effect and 100 is complete control

Q: How did the pest or weed control at 125 g/ha (Kochia (Kochia scoparia) [1]; visual injury rating, 0 to 100 scale where 0 is no effect and 100 is complete control, approximately 10 d, read-out: Kochia plant response rating) turn out when `N#Cc1ccc([C@H]2CNC(=O)[C@@H]2C(=O)Nc2cccc(F)c2F)cc1` [Compound 1206] was run?
A: 60%

Q: And the pest or weed control at 500 g/ha (Kochia (Kochia scoparia) [1]; 0 to 100 scale where 0 is no effect and 100 is complete control, read-out: Kochia plant response rating)?
A: 100%

Q: What about the plant injury at 125 g/ha (corn (Zea mays); 125 g ai/ha, visual injury vs untreated controls after approx. 10 d, 0 = no effect, 100 = complete control, read-out: Corn plant response rating (0 to 100 scale)) of the same compound?
A: 0%

Q: What about the plant injury at 500 g/ha (corn (Zea mays); 500 g ai/ha, 0 to 100 scale, 0 is no effect, 100 is complete control, read-out: Corn plant response rating) of the same compound?
A: 0%

Q: What about the pest or weed control at 125 g/ha ([2]; visual injury vs untreated controls after approx. 10 d, 0 = no effect, 100 = complete control, read-out: Blackgrass plant response rating (0 to 100 scale)) of the same compound?
A: 0%

Q: And the pest or weed control at 500 g/ha ([2]; 500 g ai/ha, 0 to 100 scale, 0 is no effect, 100 is complete control, read-out: Blackgrass plant response rating)?
A: 0%

Q: What about the pest or weed control at 125 g/ha ([3]; visual injury vs untreated controls after approx. 10 d, 0 = no effect, 100 = complete control, read-out: Pigweed plant response rating (0 to 100 scale)) of the same compound?
A: 0%

Q: And the pest or weed control at 500 g/ha ([3]; 500 g ai/ha, 0 to 100 scale, 0 is no effect, 100 is complete control, read-out: Pigweed plant response rating)?
A: 30%

Q: And the pest or weed control at 125 g/ha ([4]; visual injury vs untreated controls after approx. 10 d, 0 = no effect, 100 = complete control, read-out: Ragweed plant response rating (0 to 100 scale))?
A: 0%

Q: What about the pest or weed control at 500 g/ha ([4]; 500 g ai/ha, 0 to 100 scale, 0 is no effect, 100 is complete control, read-out: Ragweed plant response rating) of the same compound?
A: 0%

Q: What about the pest or weed control at 125 g/ha (Kochia (Kochia scoparia) [5]; visual injury vs untreated controls after approx. 10 d, 0 = no effect, 100 = complete control, read-out: Kochia plant response rating (0 to 100 scale)) of the same compound?
A: 50%

Q: What about the pest or weed control at 500 g/ha (Kochia (Kochia scoparia) [5]; 500 g ai/ha, 0 to 100 scale, 0 is no effect, 100 is complete control, read-out: Kochia plant response rating) of the same compound?
A: 50%

Q: And the pest or weed control at 125 g/ha ([6]; visual injury vs untreated controls after approx. 10 d, 0 = no effect, 100 = complete control, read-out: Ryegrass, Italian plant response rating (0 to 100 scale))?
A: 0%

Q: And the pest or weed control at 500 g/ha ([6]; 500 g ai/ha, 0 to 100 scale, 0 is no effect, 100 is complete control, read-out: Ryegrass, Italian plant response rating)?
A: 0%

Q: What about the pest or weed control at 125 g/ha ([7]; visual injury vs untreated controls after approx. 10 d, 0 = no effect, 100 = complete control, read-out: Galium plant response rating (0 to 100 scale)) of the same compound?
A: 30%

Q: What about the pest or weed control at 500 g/ha ([7]; 500 g ai/ha, 0 to 100 scale, 0 is no effect, 100 is complete control, read-out: Galium plant response rating) of the same compound?
A: 50%

Q: And the plant injury at 125 g/ha ([8]; visual injury vs untreated controls after approx. 10 d, 0 = no effect, 100 = complete control, read-out: Wheat plant response rating (0 to 100 scale))?
A: 0%

Q: What about the plant injury at 500 g/ha ([8]; 500 g ai/ha, 0 to 100 scale, 0 is no effect, 100 is complete control, read-out: Wheat plant response rating) of the same compound?
A: 0%

Q: And the pest or weed control at 125 g/ha ([9]; visual injury vs untreated controls after approx. 10 d, 0 = no effect, 100 = complete control, read-out: Foxtail, Giant plant response rating (0 to 100 scale))?
A: 50%

Q: What about the pest or weed control at 500 g/ha ([9]; 500 g ai/ha, 0 to 100 scale, 0 is no effect, 100 is complete control, read-out: Foxtail, Giant plant response rating) of the same compound?
A: 80%

Q: What about the pest or weed control at 125 g/ha ([10]; visual injury vs untreated controls after approx. 10 d, 0 = no effect, 100 = complete control, read-out: Barnyardgrass plant response rating (0 to 100 scale)) of the same compound?
A: 70%

Q: And the pest or weed control at 500 g/ha ([10]; 500 g ai/ha, 0 to 100 scale, 0 is no effect, 100 is complete control, read-out: Barnyardgrass plant response rating)?
A: 100%

Q: What about the pest or weed control at 250 g/ha [11, 14] of the same compound?
A: 0%

Q: And the pest or weed control at 250 g/ha [12, 14]?
A: 95%

Q: What about the pest or weed control at 250 g/ha (rice (Oryra sativa); [14]) of the same compound?
A: 15%

Q: And the pest or weed control at 250 g/ha [13, 14]?
A: 0%

Q: For `CCc1ccc([C@H]2CNC(=S)[C@@H]2C(=O)Nc2cccc(F)c2F)cc1` [Compound 762], which pest or weed control at 125 g/ha (Kochia (Kochia scoparia) [1]; visual rating after approx. 10 d, 0 to 100 scale where 0 is no effect and 100 is complete control, read-out: Plant response rating, Kochia) is on record?
A: 0%

Q: And the pest or weed control at 500 g/ha (Kochia (Kochia scoparia) [1]; 0 to 100 scale, 0 = no effect, 100 = complete control, read-out: Plant response rating, Kochia)?
A: 50%

Q: And the Corn plant response rating (crop injury, 0 = no effect, 100 = complete kill) at 125 g/ha (corn (Zea mays); 125 g ai/ha, visual injury after approximately 10 d, 0 to 100 scale (0 no effect, 100 complete control))?
A: 0%

Q: What about the pest or weed control at 125 g/ha ([2]; visual injury after approximately 10 d, 0 to 100 scale (0 no effect, 100 complete control), read-out: Plant response rating, Blackgrass) of the same compound?
A: 0%

Q: What about the pest or weed control at 125 g/ha ([3]; visual injury after approximately 10 d, 0 to 100 scale (0 no effect, 100 complete control), read-out: Plant response rating, Pigweed) of the same compound?
A: 0%

Q: And the pest or weed control at 125 g/ha ([4]; visual injury after approximately 10 d, 0 to 100 scale (0 no effect, 100 complete control), read-out: Plant response rating, Ragweed)?
A: 0%

Q: What about the pest or weed control at 125 g/ha (Kochia (Kochia scoparia) [5]; visual injury after approximately 10 d, 0 to 100 scale (0 no effect, 100 complete control), read-out: Plant response rating, Kochia) of the same compound?
A: 0%

Q: And the pest or weed control at 125 g/ha ([6]; visual injury after approximately 10 d, 0 to 100 scale (0 no effect, 100 complete control), read-out: Plant response rating, Ryegrass, Italian)?
A: 0%

Q: What about the pest or weed control at 125 g/ha ([7]; visual injury after approximately 10 d, 0 to 100 scale (0 no effect, 100 complete control), read-out: Plant response rating, Galium) of the same compound?
A: 0%

Q: What about the plant injury at 125 g/ha ([8]; visual injury after approximately 10 d, 0 to 100 scale (0 no effect, 100 complete control), read-out: Plant response rating, Wheat) of the same compound?
A: 0%

Q: What about the pest or weed control at 125 g/ha ([9]; visual injury after approximately 10 d, 0 to 100 scale (0 no effect, 100 complete control), read-out: Plant response rating, Foxtail, Giant) of the same compound?
A: 20%

Q: What about the pest or weed control at 125 g/ha ([10]; visual injury after approximately 10 d, 0 to 100 scale (0 no effect, 100 complete control), read-out: Plant response rating, Barnyardgrass) of the same compound?
A: 90%

Q: And the pest or weed control at 250 g/ha [11, 15]?
A: 0%

Q: And the pest or weed control at 250 g/ha [12, 15]?
A: 98%

Q: And the pest or weed control at 250 g/ha (rice (Oryra sativa); [15])?
A: 0%

Q: And the pest or weed control at 250 g/ha [13, 15]?
A: 0%
